Measurements: ChEMBL document CHEMBL1201862, “PubChem BioAssay data set” (2004)
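The compound was tested at five concentrations on cells cultured in 96-well plates, with a 48-hour exposure period. Abbreviation: GI50, concentration required for 50% inhibition of growth.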 Active and inactive are the calls of the source. Cut-off read from the data, not from the text of the source: active = GI50 up to about 1.1 µM and inactive = higher.

Columns and labels:
Assay in all cases: growth of human tumour cells (NCI), 48 h
[1] = tested on: PC-3
[2] = tested on: DU-145
[3] = tested on: Hs-578T
[4] = tested on: SR
[5] = tested on: HCT-116
[6] = tested on: MDA-MB-231
[7] = tested on: MCF7
[8] = tested on: RXF 393
[9] = tested on: NCI-H522
[10] = tested on: SNB-75
[11] = tested on: BT-549
[12] = tested on: 786-0
[13] = tested on: SK-MEL-28
[14] = tested on: T47D
[15] = tested on: NCI/ADR-RES
[16] = tested on: IGROV-1
[17] = tested on: MDA-MB-435
[18] = tested on: MDA-N
[19] = tested on: NCI-H226

| Structure (SMILES) | GI50 [1] | GI50 [2] | GI50 [3] | GI50 [4] | GI50 [5] | GI50 [6] | GI50 [7] | GI50 [8] | GI50 [9] | GI50 [10] | GI50 [11] | GI50 [12] | GI50 [13] | GI50 [14] | GI50 [15] | GI50 [16] | GI50 [17] | GI50 [18] | GI50 [19] |
| --- | --- | --- | --- | --- | --- | --- | --- | --- | --- | --- | --- | --- | --- | --- | --- | --- | --- | --- | --- |
| O=C1c2ccccc2C(=O)c2c(OCCOCCO)cccc21 | 38.1 µM (inactive) | > 100 µM (inactive) | 20.5 µM (inactive) | 66.7 µM (inactive) | 45.6 µM (inactive) | 0.935 µM (active) | 74.6 µM (inactive) | 48.6 µM (inactive) | 52.6 µM (inactive) | > 100 µM (inactive) | > 100 µM (inactive) | > 100 µM (inactive) | > 100 µM (inactive) | 49.4 µM (inactive) | > 100 µM (inactive) | 45.5 µM (inactive) | > 100 µM (inactive) | – | – |
| O=C1Nc2ccccc2/C1=N/NC(=S)Nc1ccccc1Cl | 5.93 µM (inactive) | 9.27 µM (inactive) | 2.67 µM (inactive) | < 0.01 µM (active) | 0.729 µM (active) | 11.3 µM (inactive) | 3.4 µM (inactive) | 5.2 µM (inactive) | 11.9 µM (inactive) | 2.82 µM (inactive) | – | 1.77 µM (inactive) | 12.2 µM (inactive) | 11.6 µM (inactive) | 0.384 µM (active) | 3.33 µM (inactive) | 10.8 µM (inactive) | 20.6 µM (inactive) | 10.1 µM (inactive) |
| CCOP(=O)(OCC)C(Cc1ccc(OC)c(OC)c1)N=C(c1ccccc1)c1ccccc1 (configuration not stated) | 32.4 µM (inactive) | 37.2 µM (inactive) | – | 6.84 µM (inactive) | 27.1 µM (inactive) | 42.3 µM (inactive) | 24.7 µM (inactive) | 61.4 µM (inactive) | 22.8 µM (inactive) | 27.5 µM (inactive) | > 100 µM (inactive) | – | 45.3 µM (inactive) | 20.5 µM (inactive) | 44.7 µM (inactive) | 45.2 µM (inactive) | 71 µM (inactive) | 59.8 µM (inactive) | 88.1 µM (inactive) |
| CN1C(=O)C2C=C3CCCCC3=CC2N(C)C1=O (configuration not stated) | > 100 µM (inactive) | > 100 µM (inactive) | > 100 µM (inactive) | > 100 µM (inactive) | > 100 µM (inactive) | > 100 µM (inactive) | > 100 µM (inactive) | > 100 µM (inactive) | > 100 µM (inactive) | > 100 µM (inactive) | > 100 µM (inactive) | – | > 100 µM (inactive) | > 100 µM (inactive) | > 100 µM (inactive) | > 100 µM (inactive) | > 100 µM (inactive) | > 100 µM (inactive) | > 100 µM (inactive) |
| COc1ccc(C(CC(=O)c2cccs2)C(=O)c2ccc3c(c2)OCO3)cc1 (configuration not stated) | > 100 µM (inactive) | > 100 µM (inactive) | > 100 µM (inactive) | – | > 100 µM (inactive) | > 100 µM (inactive) | > 100 µM (inactive) | – | – | > 100 µM (inactive) | – | – | > 100 µM (inactive) | 69.5 µM (inactive) | > 100 µM (inactive) | > 100 µM (inactive) | > 100 µM (inactive) | > 100 µM (inactive) | – |
| C/C1=C\[C@@H](C)C[C@@H](C)OC(=O)[C@@H](C)NC(=O)[C@H](Cc2ccc(O)c(Br)c2)N(C)C(=O)CNC(=O)[C@H](C)C1 | < 0.01 µM (active) | 0.363 µM (active) | < 0.0136 µM (active) | – | < 0.01 µM (active) | < 0.01 µM (active) | 0.182 µM (active) | < 0.0184 µM (active) | < 0.01 µM (active) | < 0.01 µM (active) | 0.0641 µM (active) | < 0.0136 µM (active) | 0.0284 µM (active) | 0.126 µM (active) | 0.0366 µM (active) | < 0.01 µM (active) | < 0.01 µM (active) | < 0.0304 µM (active) | – |
| COc1ccc(-c2c(-c3ccccc3)c(C)nc3nc(SC)nc(SC)c23)cc1OC | 4.29 µM (inactive) | 15.5 µM (inactive) | 5.05 µM (inactive) | 0.565 µM (active) | 6.18 µM (inactive) | 20.9 µM (inactive) | 10.6 µM (inactive) | 17.1 µM (inactive) | 4.61 µM (inactive) | 16.1 µM (inactive) | 24.8 µM (inactive) | – | 22.8 µM (inactive) | 13 µM (inactive) | – | 30 µM (inactive) | 8.17 µM (inactive) | 8.99 µM (inactive) | 17.3 µM (inactive) |
| CCOC(=O)CCC(NC(=O)c1ccc(Nc2nc3cc(C(F)(F)F)ccc3nc2C(=O)OCC)cc1)C(=O)OCC (configuration not stated) | 9.55 µM (inactive) | 78.9 µM (inactive) | – | > 100 µM (inactive) | 6.75 µM (inactive) | 12.5 µM (inactive) | > 10 µM (inactive) | – | 11.2 µM (inactive) | – | 16.3 µM (inactive) | 2.44 µM (inactive) | 12.1 µM (inactive) | 6.25 µM (inactive) | 12.2 µM (inactive) | 17.1 µM (inactive) | 6.87 µM (inactive) | 6.9 µM (inactive) | – |
| Nc1nccc2c1ncn2[C@H]1C[C@H](O)[C@@H](CO)O1 | > 100 µM (inactive) | > 100 µM (inactive) | > 100 µM (inactive) | > 100 µM (inactive) | > 100 µM (inactive) | > 100 µM (inactive) | > 100 µM (inactive) | > 100 µM (inactive) | – | > 100 µM (inactive) | > 100 µM (inactive) | – | > 100 µM (inactive) | > 100 µM (inactive) | > 100 µM (inactive) | > 100 µM (inactive) | > 100 µM (inactive) | > 100 µM (inactive) | > 100 µM (inactive) |
| Cn1c2ncccc2n2c(=O)cc(O)cc12 | 56.4 µM (inactive) | > 100 µM (inactive) | – | > 100 µM (inactive) | > 100 µM (inactive) | 32.4 µM (inactive) | 33.9 µM (inactive) | 21.1 µM (inactive) | 44 µM (inactive) | 24.4 µM (inactive) | 94.4 µM (inactive) | > 100 µM (inactive) | 89.3 µM (inactive) | 24.1 µM (inactive) | 81.5 µM (inactive) | 12.3 µM (inactive) | 53.3 µM (inactive) | 81.1 µM (inactive) | 30.1 µM (inactive) |
| COC(=O)C1=COC2OC3CC1C2C(C)O3 (configuration not stated) | > 100 µM (inactive) | > 100 µM (inactive) | > 100 µM (inactive) | > 100 µM (inactive) | > 100 µM (inactive) | > 100 µM (inactive) | > 100 µM (inactive) | > 100 µM (inactive) | > 100 µM (inactive) | – | > 100 µM (inactive) | > 100 µM (inactive) | > 100 µM (inactive) | > 100 µM (inactive) | > 100 µM (inactive) | > 100 µM (inactive) | > 100 µM (inactive) | > 100 µM (inactive) | > 100 µM (inactive) |
| O=c1[nH]c2ccccc2n1CCCN1CCC(n2c(=O)[nH]c3cc(Cl)ccc32)CC1 [DOMPERIDONE] | 19.4 µM (inactive) | 19 µM (inactive) | 19.6 µM (inactive) | – | 16.8 µM (inactive) | 17.6 µM (inactive) | 18 µM (inactive) | 16 µM (inactive) | 15.4 µM (inactive) | – | 18 µM (inactive) | 14.4 µM (inactive) | 17 µM (inactive) | 16.3 µM (inactive) | 23.3 µM (inactive) | 19.2 µM (inactive) | 16.2 µM (inactive) | 15.8 µM (inactive) | 24 µM (inactive) |
| COc1ccc(OC)c2c1C(=O)C(Cl)=C(N1CCN(CCOCCO)CC1)C2=O | 6.37 µM (inactive) | 18.6 µM (inactive) | 16.1 µM (inactive) | 3.21 µM (inactive) | 4.66 µM (inactive) | 13.9 µM (inactive) | 6.12 µM (inactive) | 19 µM (inactive) | 4.3 µM (inactive) | 15.9 µM (inactive) | 14.8 µM (inactive) | 5.78 µM (inactive) | 16.1 µM (inactive) | 4.65 µM (inactive) | 26.5 µM (inactive) | 7.31 µM (inactive) | 14.4 µM (inactive) | – | 16.7 µM (inactive) |
| C[C@H]1C(=O)O[C@@H]2CCN3CC=C(COC(=O)[C@](C)(O)[C@@]1(C)O)[C@H]23 | > 100 µM (inactive) | > 100 µM (inactive) | > 100 µM (inactive) | – | > 100 µM (inactive) | > 100 µM (inactive) | > 100 µM (inactive) | – | > 100 µM (inactive) | > 100 µM (inactive) | > 100 µM (inactive) | > 100 µM (inactive) | > 100 µM (inactive) | > 100 µM (inactive) | > 100 µM (inactive) | > 100 µM (inactive) | > 100 µM (inactive) | > 100 µM (inactive) | > 100 µM (inactive) |
| CC1(C)CCC[C@]2(C)[C@@H](C=O)C(C=O)=CC[C@@H]12 [POLYGODIAL] | 27.7 µM (inactive) | 18.5 µM (inactive) | 27.9 µM (inactive) | 18.2 µM (inactive) | 28.6 µM (inactive) | 10.6 µM (inactive) | 14.7 µM (inactive) | 17.1 µM (inactive) | 15.8 µM (inactive) | – | 25.9 µM (inactive) | 37 µM (inactive) | 43.2 µM (inactive) | 19.8 µM (inactive) | 18.6 µM (inactive) | 19 µM (inactive) | 36.6 µM (inactive) | 13.6 µM (inactive) | 20 µM (inactive) |
| CN1CC(c2ccccc2)N(CCCCN2CC(c3ccccc3)N(C)CC2c2ccccc2)CC1c1ccccc1 (configuration not stated) | 18.2 µM (inactive) | 36.2 µM (inactive) | 73.1 µM (inactive) | 68.5 µM (inactive) | 11.9 µM (inactive) | 58.7 µM (inactive) | 68.7 µM (inactive) | 21.9 µM (inactive) | – | 29.4 µM (inactive) | 37 µM (inactive) | 73.5 µM (inactive) | > 100 µM (inactive) | – | 53.8 µM (inactive) | 45 µM (inactive) | 36.1 µM (inactive) | 32.1 µM (inactive) | 95.7 µM (inactive) |
